The values that follow come from ChEMBL document CHEMBL1201862, “PubChem BioAssay data set” (2004).

Test systems include SNB-19; MDA-MB-435; SF-539; UO-31; SN12C; OVCAR-4; HCC 2998; RXF 393; NCI-H226; OVCAR-8; NCI-H522; KM12; M14; 786-0; NCI-H460; A498; HT-29; HCT-15; A549; HL-60.
What all share (experiment): inhibition of tumour cell growth, NCI panel, 48 h

Each structure is given as a SMILES string.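 Assay format: 96-well plates, 48-hour exposure. GI50 marks 50% less growth.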 The source made the active and inactive calls. No stated cut-off is given here; in the data, active = GI50 up to about 1.1 µM and inactive = higher. Some results are limits rather than exact numbers.

Regarding `COc1ccc(N2C(=O)C3c4[nH]c5ccccc5c4C4C(C)CCCC4C3C2=O)cc1` (stereo not given), the GI50 was > 44.6 µM (inactive) in the assay with SNB-19; 3.46 µM (inactive) in the assay on MDA-MB-435; > 43.4 µM (inactive) in the assay with SF-539; > 76.7 µM (inactive) in the assay on UO-31; 40.9 µM (inactive) with SN12C; 33.7 µM (inactive) in the assay on OVCAR-4. Further, the GI50 in the assay with HCC 2998 is > 100 µM (inactive); with RXF 393, > 26.6 µM (inactive); in the assay with NCI-H226, 41.3 µM (inactive); with OVCAR-8 it was 34 µM (inactive); in the assay with NCI-H522 it was 7.94 µM (inactive); in the assay with KM12 it was 13.8 µM (inactive). The GI50 was > 41.5 µM (inactive) in the assay with M14; 17.5 µM (inactive) in the assay with 786-0; > 63.8 µM (inactive) in the assay on NCI-H460; 45.5 µM (inactive) with A498; 29.7 µM (inactive) with HT-29; > 34 µM with HCT-15. Further, in the assay on A549, the GI50 was > 45.1 µM (inactive).
Regarding `CCOC(=O)[C@@H](NC(=O)OC(C)(C)C)[C@@H](O)C(=O)OCC`, the GI50 in the assay on SNB-19, with MDA-MB-435, in the assay with UO-31, in the assay on SN12C, with HL-60 and with OVCAR-4 was > 100 µM (inactive) in each case. Also, the GI50 in the assay on HCC 2998 is 62.8 µM (inactive); in the assay with RXF 393, > 100 µM (inactive); in the assay on NCI-H226, > 100 µM (inactive); with OVCAR-8, > 100 µM (inactive); in the assay with KM12 it was > 100 µM (inactive); in the assay on M14 it was > 100 µM (inactive). For the same compound, the GI50 in the assay with 786-0 was > 100 µM (inactive); with NCI-H460 it was > 100 µM (inactive); in the assay on A498 it was 69.5 µM (inactive); with HT-29, > 100 µM (inactive); with HCT-15 it was > 100 µM; in the assay on A549 it was > 100 µM (inactive).
As to `Nc1nc(-c2ccccc2)cc(-c2ccc(OCc3ccccc3)cc2O)n1`, the GI50 in the assay on SNB-19 is 50.2 µM (inactive); with MDA-MB-435, 34 µM (inactive); with SF-539 it was 26 µM (inactive); in the assay on UO-31 it was 38.1 µM (inactive); with SN12C, 76.9 µM (inactive); in the assay on OVCAR-4, 71.6 µM (inactive). In addition, the GI50 with HCC 2998 is 34.4 µM (inactive); in the assay with RXF 393, 27.5 µM (inactive); in the assay with NCI-H226, 46.1 µM (inactive); in the assay with OVCAR-8, 29.6 µM (inactive); in the assay on NCI-H522 it was 20.5 µM (inactive); in the assay on KM12, 34.4 µM (inactive). Further, the GI50 was 30.8 µM (inactive) with M14; 40.9 µM (inactive) in the assay on 786-0; 40.4 µM (inactive) in the assay on NCI-H460; 60.3 µM (inactive) in the assay on A498; 37.8 µM (inactive) in the assay on HT-29; 32.2 µM in the assay with HCT-15. The GI50 in the assay with A549 was 33.4 µM (inactive).
As to `N#Cc1cccc2c1Sc1ccccc1N2`, the GI50 with SNB-19 was 33.1 µM (inactive); in the assay on MDA-MB-435, 27.3 µM (inactive); in the assay with SF-539, 20.4 µM (inactive); with UO-31 it was 27.1 µM (inactive); in the assay with SN12C, 39.2 µM (inactive); in the assay on HL-60 it was 27.3 µM (inactive). In addition, the GI50 in the assay with HCC 2998 is 27 µM (inactive); with RXF 393, 3.7 µM (inactive); in the assay with NCI-H226, 29.3 µM (inactive); in the assay on OVCAR-8 it was 29.5 µM (inactive); in the assay on KM12, 32.7 µM (inactive); in the assay with M14, 25.8 µM (inactive). Besides, the GI50 is 30.2 µM (inactive) with 786-0; 32.5 µM (inactive) with NCI-H460; 14.8 µM (inactive) in the assay on A498; 32.7 µM (inactive) in the assay on HT-29; 23.6 µM in the assay with HCT-15; 24.5 µM (inactive) in the assay on A549.
Turning to `CC1CCCC(C(=O)CC2CC(=O)NC(=O)C2)C1=O` (stereo not given), the GI50 in the assay on SNB-19, with MDA-MB-435, in the assay with SF-539, in the assay on UO-31, in the assay with SN12C and in the assay on HL-60 was > 100 µM (inactive) throughout. Also, the GI50 with OVCAR-4, with HCC 2998, in the assay on RXF 393, in the assay on NCI-H226, in the assay with OVCAR-8 and with KM12 was > 100 µM (inactive) each time. Also, the GI50 in the assay with M14 is > 100 µM (inactive); in the assay with 786-0 it was > 100 µM (inactive); with NCI-H460, > 100 µM (inactive); with A498, > 100 µM (inactive); in the assay on HT-29 it was > 100 µM (inactive); in the assay on HCT-15, > 100 µM. Besides, in the assay with A549, the GI50 was > 100 µM (inactive).
Regarding `N#CC(Cc1ccccc1Br)N(CCC1=CCCCC1)C(c1ccccc1)c1ccccc1` (stereo not given), the GI50 in the assay with SNB-19 is > 100 µM (inactive); with MDA-MB-435, 30.4 µM (inactive); in the assay on UO-31, 83.2 µM (inactive); with OVCAR-4 it was 94 µM (inactive); with HCC 2998 it was 18.6 µM (inactive); in the assay on RXF 393, 71.6 µM (inactive). For the same compound, the GI50 in the assay with OVCAR-8 is 76 µM (inactive); with NCI-H522 it was 25.9 µM (inactive); in the assay with KM12 it was 64.9 µM (inactive); in the assay with M14, 37.9 µM (inactive); with 786-0, > 100 µM (inactive); with NCI-H460, 57.3 µM (inactive). The GI50 in the assay with A498 is > 100 µM (inactive); in the assay on HT-29, 32.9 µM (inactive); in the assay on HCT-15, 50.2 µM; with A549, 93.3 µM (inactive).
As for `Nc1ncnc2c1ncn2-c1ccc([N+](=O)[O-])cn1`, the GI50 in the assay on SNB-19, in the assay on MDA-MB-435, with SF-539, with UO-31, with SN12C and with HL-60 was > 100 µM (inactive) each time. Besides, the GI50 in the assay with OVCAR-4, in the assay with HCC 2998, with RXF 393, in the assay on NCI-H226, in the assay on OVCAR-8 and in the assay with KM12 was > 100 µM (inactive) in each case. Besides, the GI50 in the assay with M14 was > 100 µM (inactive); in the assay with 786-0, > 100 µM (inactive); with NCI-H460, > 100 µM (inactive); with A498, > 100 µM (inactive); in the assay on HT-29, > 100 µM (inactive); in the assay on HCT-15, > 100 µM. Moreover, in the assay with A549, the GI50 is > 100 µM (inactive).
With `CCCCC[C@@H]1OC(=O)[C@@]2(CC3c4ccccc4C2c2ccccc23)[C@H]1C(=O)OC`, the GI50 is > 100 µM (inactive) in the assay on SNB-19; 93.1 µM (inactive) with MDA-MB-435; 85.3 µM (inactive) with UO-31; 74.3 µM (inactive) in the assay on SN12C; 6.35 µM (inactive) with HL-60; 58.2 µM (inactive) in the assay on OVCAR-4. For the same compound, the GI50 in the assay with HCC 2998 is 23.6 µM (inactive); in the assay with RXF 393 it was 24.6 µM (inactive); in the assay on OVCAR-8, 79.1 µM (inactive); in the assay with KM12, 45.7 µM (inactive); with M14, 55.2 µM (inactive); in the assay with 786-0, 67.3 µM (inactive). Besides, the GI50 in the assay on NCI-H460 was 11.6 µM (inactive); in the assay on A498 it was 13.4 µM (inactive); in the assay with HT-29, 17.3 µM (inactive); in the assay on HCT-15 it was 29.9 µM; in the assay on A549, 24.4 µM (inactive).
Consider `Cn1c(=O)nc2n(CCO)c(-c3ccccc3)c(-c3ccccc3)nc-2c1=O`, for which the GI50 in the assay with SNB-19, in the assay with MDA-MB-435, with SF-539, with UO-31, in the assay with SN12C and with OVCAR-4 was > 100 µM (inactive) in each case. The GI50 with HCC 2998, with RXF 393, in the assay on NCI-H226, in the assay with OVCAR-8, in the assay on NCI-H522 and with KM12 was > 100 µM (inactive) throughout. Besides, the GI50 in the assay with M14 is > 100 µM (inactive); in the assay on 786-0, > 100 µM (inactive); with NCI-H460, 39.1 µM (inactive); with A498, > 100 µM (inactive); in the assay on HT-29, > 100 µM (inactive); in the assay on HCT-15, > 100 µM. In addition, the GI50 in the assay with A549 was > 100 µM (inactive).
As to `COc1cc2ccnc3c2c(c1O)N(C)C=C3`, the GI50 with SNB-19 was 25.5 µM (inactive); with MDA-MB-435 it was 11.6 µM (inactive); with UO-31, 7.66 µM (inactive); in the assay with SN12C, 13.5 µM (inactive); in the assay with OVCAR-4 it was 16 µM (inactive); with HCC 2998 it was 23 µM (inactive). Moreover, the GI50 was 14.3 µM (inactive) in the assay with RXF 393; 18 µM (inactive) in the assay on NCI-H226; 9.53 µM (inactive) with OVCAR-8; 1.59 µM (inactive) in the assay with NCI-H522; 19.4 µM (inactive) in the assay on KM12; 17 µM (inactive) in the assay on M14. Moreover, the GI50 is 7.19 µM (inactive) in the assay with 786-0; 24.9 µM (inactive) in the assay on NCI-H460; 15.9 µM (inactive) in the assay on A498; 15 µM with HCT-15; 20.2 µM (inactive) in the assay on A549.
For `Cc1ccc2c(c1)[nH]c(=S)n2C=C(C(N)=O)C(N)=O`, the GI50 in the assay with SNB-19 was > 100 µM (inactive); with MDA-MB-435, > 100 µM (inactive); in the assay on SF-539, > 100 µM (inactive); in the assay with UO-31 it was > 100 µM (inactive); in the assay on SN12C, > 100 µM (inactive); with HL-60, 5.66 µM (inactive). Besides, the GI50 in the assay on OVCAR-4, in the assay with HCC 2998, in the assay on RXF 393, with NCI-H226, with OVCAR-8 and in the assay with KM12 was > 100 µM (inactive) each time. For the same compound, the GI50 with M14 was > 100 µM (inactive); in the assay with 786-0 it was > 100 µM (inactive); in the assay on NCI-H460, > 100 µM (inactive); with A498, > 100 µM (inactive); in the assay with HT-29 it was > 100 µM (inactive); with HCT-15 it was > 100 µM. Moreover, the GI50 in the assay with A549 was > 100 µM (inactive).
